# *1 amine or outer side, *2 acyl side, *3 side chain or, on linkers, in order; H or OH if unused. Where a SMILES comes first, the peptide text is derived from it. Bridges are numbered along the chain shown (N, C = ends). [ ]: non-standard residue; d: D form. The star is where a group is joined. hPhe(3-Cl-4-CF3) = N[C@@H](CCc1ccc(C(F)(F)F)c(Cl)c1)C(=O)O; NPrPhe(4-CF3) = CCCN[C@@H](Cc1ccc(C(F)(F)F)cc1)C(=O)O; NEtAsp = CCN([C@@H](CC(=O)[*:3])C(=O)[*:2])[*:1]; NMeGly(cPent) = CN[C@H](C(=O)O)C1CCCC1; NEtLeu = CCN[C@@H](CC(C)C)C(=O)O; NMeD = CN[C@@H](CC(=O)O)C(=O)O; NMeL = CN[C@@H](CC(C)C)C(=O)O; NMeS = CN[C@@H](CO)C(=O)O; Morpholide = C1CN(*)CCO1; Ac5c = NC1(C(=O)O)CCCC1; Ac4c = NC1(C(=O)O)CCC1; Sar = CNCC(=O)O
# How the values were obtained:
# [1] = target: GDP-bound KRAS wild-type protein (Homo sapiens, UniProt P01116); assay: Binding to KRAS by surface plasmon resonance (SPR), Single Cycle Kinetics; details: SPR, Single Cycle Kinetics, GDP-bound KRAS wild-type protein; read-out: KRAS KD
# [2] = target: GDP-bound NRAS wild-type protein (Homo sapiens, UniProt P01111); assay: Binding to NRAS by surface plasmon resonance (SPR), Single Cycle Kinetics; details: ratio of KD for GDP-bound NRAS wild-type protein to KD for KRAS, SPR
# [3] = target: GDP-bound HRAS wild-type protein (Homo sapiens, UniProt P01112); assay: Binding to HRAS by surface plasmon resonance (SPR), Single Cycle Kinetics; details: ratio of KD for GDP-bound HRAS wild-type protein to KD for KRAS, SPR
# [4] = system: human lung cancer strain NCI-H441; assay: cells; details: NCI-H441, 96 h, read-out: NCI-H441 IC50 (nM), NCI-H441 cell proliferation, 4 days, CellTiter-Glo;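 also: cell proliferation inhibition after four days measured by CellTiter-Glo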
# GDP-bound KRAS wild-type protein, sequence (P01116 whole entry): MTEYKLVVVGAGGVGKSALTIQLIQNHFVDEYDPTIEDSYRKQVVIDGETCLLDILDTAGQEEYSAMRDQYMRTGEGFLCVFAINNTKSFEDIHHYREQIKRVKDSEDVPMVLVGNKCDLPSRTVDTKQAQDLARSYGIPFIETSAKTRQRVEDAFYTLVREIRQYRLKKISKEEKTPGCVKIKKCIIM
# GDP-bound HRAS wild-type protein, sequence (P01112 whole entry): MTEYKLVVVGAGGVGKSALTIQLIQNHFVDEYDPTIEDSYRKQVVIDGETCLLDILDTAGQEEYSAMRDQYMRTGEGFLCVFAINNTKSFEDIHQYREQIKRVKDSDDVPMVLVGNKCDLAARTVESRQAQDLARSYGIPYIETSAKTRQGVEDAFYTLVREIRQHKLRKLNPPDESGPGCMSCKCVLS
# GDP-bound NRAS wild-type protein, sequence (P01111 whole entry): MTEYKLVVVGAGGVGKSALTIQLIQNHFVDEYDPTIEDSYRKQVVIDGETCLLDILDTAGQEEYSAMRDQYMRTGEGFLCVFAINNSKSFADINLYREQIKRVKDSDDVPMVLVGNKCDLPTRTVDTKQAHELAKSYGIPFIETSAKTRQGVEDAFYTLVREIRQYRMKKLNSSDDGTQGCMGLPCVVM
SMILES,Kd [1],IC50 [4],NRAS/KRAS (KD ratio) [2],HRAS/KRAS (KD ratio) [3]
CC[C@H](C)[C@@H]1NC(=O)[C@H](CC(C)C)N(C)C(=O)C[C@@H](C(=O)N(C)CC)N(C)C(=O)[C@H](C2CCCC2)N(C)C(=O)C2(CCC2)NC(=O)[C@@H]2C[C@@H](C)CN2C(=O)[C@H](CCc2ccc(C(F)(F)F)c(OC)c2)NC(=O)CN(C)C(=O)[C@H](Cc2ccc(C)cc2)N2CC/C=C\C[C@@H](C2=O)N(C)C(=O)CN(C)C1=O [PP1907],0.17 nM,23.6 nM,AA (a compound having 20 or more is denoted as AA),A (a compound having 10 or more and less than 20 is denoted as A)
CCO[C@@H]1C[C@H]2C(=O)NC3(CC(C)(C)C3)C(=O)N(C)[C@@H](C3CCCC3)C(=O)N(C)[C@H](C(=O)N(C)C)CC(=O)N3CCCCC[C@H]3C(=O)N[C@@H]([C@@H](C)CC)C(=O)N(C)CC(=O)N(C)[C@H]3C/C=C\CCN(C3=O)[C@@H](Cc3ccc(C(F)(F)F)cc3)C(=O)N(C)CC(=O)N[C@@H](CCc3cc(F)c(C(F)(F)F)c(F)c3)C(=O)N2C1 [PP1915],0.31 nM,18.5 nM,A (a compound having 10 or more and less than 20 is denoted as A),A (a compound having 10 or more and less than 20 is denoted as A)
CCCC[C@H]1C(=O)N[C@@H]([C@@H](C)CC)C(=O)N(C)CC(=O)N(C)[C@H]2C/C=C\CCN(C2=O)[C@@H](Cc2ccc(C(F)(F)F)cc2)C(=O)N(C)CC(=O)N[C@@H](CCc2ccc(C(F)(F)F)c(Cl)c2)C(=O)N2C[C@H](OCC)C[C@H]2C(=O)NC2(CC(C)(C)C2)C(=O)N(C)[C@@H](C2CCCC2)C(=O)N(C)[C@H](C(=O)N(C)C)CC(=O)N1C [PP1750],0.069 nM,3.4 nM,A (a compound having 10 or more and less than 20 is denoted as A),B (a compound having 3 or more and less than 10 is denoted as B)
CC[C@H](C)[C@@H]1NC(=O)[C@H](CC)N(C)C(=O)C[C@@H](C(=O)N(C)C)N(C)C(=O)[C@H](C2CCCC2)N(C)C(=O)C2(CCC2)N(C)C(=O)[C@@H]2C[C@@H](C)CN2C(=O)[C@H](CCc2cc(F)c(C(F)(F)F)c(F)c2)NC(=O)CN(C)C(=O)[C@H](Cc2ccc(C)cc2)N2CC/C=C\C[C@@H](C2=O)N(C)C(=O)[C@@H]2CCCN2C1=O [PP1789],0.13 nM,9.5 nM,A (a compound having 10 or more and less than 20 is denoted as A),A (a compound having 10 or more and less than 20 is denoted as A)
CC[C@H](C)[C@@H]1NC(=O)[C@H](CC(F)F)N(C)C(=O)C[C@@H](C(=O)N(C)C)N(C)C(=O)[C@H](C2CCCC2)N(C)C(=O)C2(CC(C)(C)C2)NC(=O)[C@@H]2CC(F)(F)CN2C(=O)[C@H](CCc2cc(F)c(C(F)(F)F)c(F)c2)NC(=O)CN(C)C(=O)[C@H](Cc2ccc(C(F)(F)F)cc2)N2CC/C=C\C[C@@H](C2=O)N(C)C(=O)CN(C)C1=O [PP1709],0.058 nM,3.8 nM,A (a compound having 10 or more and less than 20 is denoted as A),A (a compound having 10 or more and less than 20 is denoted as A)
CCCN1C(=O)CN(C)C(=O)CN(C)C(=O)[C@H]([C@@H](C)CC)NC(=O)[C@H](CC(C)C)N(C)C(=O)C[C@@H](C(=O)N2CCOCC2)N(C)C(=O)[C@H](C2CCCC2)N(C)C(=O)C2(CCCC2)NC(=O)[C@H](COC)N(C)C(=O)[C@H](CCc2ccc(C(F)(F)F)c(Cl)c2)NC(=O)CN(C)C(=O)[C@@H]1Cc1ccc(C(F)(F)F)cc1 [PP1920] ([NMeL]I[Sar][Sar][NPrPhe(4-CF3)][Sar][hPhe(3-Cl-4-CF3)][NMeS](Me)[Ac5c][NMeGly(cPent)][NMeD]-Morpholide; lactam N-11),0.31 nM,32.4 nM,B (a compound having 3 or more and less than 10 is denoted as B),C (A compound having a KD ratio of 0.1 or more and less than 3 is denoted as C)
CCCN1C(=O)CN(C)C(=O)CN(C)C(=O)[C@H]([C@@H](C)CC)NC(=O)[C@H](CC(C)C)N(C)C(=O)C[C@@H](C(=O)N(C)C)N(CC)C(=O)[C@H](C2CCCC2)N(C)C(=O)C2(CCC2)NC(=O)[C@@H]2CCCN2C(=O)[C@H](CCc2ccc(C(F)(F)F)c(Cl)c2)NC(=O)CN(C)C(=O)[C@@H]1Cc1ccc(C(F)(F)F)cc1 [PP1956] ([NMeL]I[Sar][Sar][NPrPhe(4-CF3)][Sar][hPhe(3-Cl-4-CF3)]P[Ac4c][NMeGly(cPent)][NEtAsp]-NMe2; lactam N-11),0.28 nM,2.2 nM,B (a compound having 3 or more and less than 10 is denoted as B),B (a compound having 3 or more and less than 10 is denoted as B)
CCO[C@@H]1C[C@H]2C(=O)N(C)C3(CCC3)C(=O)N(C)[C@@H](C3CCCC3)C(=O)N(C)[C@H](C(=O)N(C)C)CC(=O)N(C)[C@@H](CC)C(=O)N[C@@H]([C@@H](C)CC)C(=O)N(C)CC(=O)N(C)[C@H]3C/C=C\CCN(C3=O)[C@@H](Cc3ccc(C(F)(F)F)cc3)C(=O)N(C)CC(=O)N[C@@H](CCc3cc(F)c(C(F)(F)F)c(F)c3)C(=O)N2C1 [PP1779],0.034 nM,5.4 nM,A (a compound having 10 or more and less than 20 is denoted as A),B (a compound having 3 or more and less than 10 is denoted as B)
CCO[C@@H]1C[C@H]2C(=O)NC3(CC(C)(C)C3)C(=O)N(C)[C@@H](C3CCCC3)C(=O)N(CC)[C@H](C(=O)N(C)C)CC(=O)N(C)[C@@H](CC)C(=O)N[C@@H]([C@@H](C)CC)C(=O)N(C)CC(=O)N(C)[C@H]3C/C=C\CCN(C3=O)[C@@H](Cc3ccc(C(F)(F)F)cc3)C(=O)N(C)CC(=O)N[C@@H](CCc3cc(F)c(C(F)(F)F)c(F)c3)C(=O)N2C1 [PP1768],0.32 nM,4.9 nM,A (a compound having 10 or more and less than 20 is denoted as A),A (a compound having 10 or more and less than 20 is denoted as A)

# Continued, in another order:
Kd [1],IC50 [4],SMILES,NRAS/KRAS (KD ratio) [2],HRAS/KRAS (KD ratio) [3]
0.36 nM,10.9 nM,CCCN1C(=O)CN(C)C(=O)CNC(=O)[C@H]([C@@H](C)CC)NC(=O)[C@H](CC(C)C)N(CC)C(=O)C[C@@H](C(=O)N2CCOCC2)N(C)C(=O)[C@H](C2CCCC2)N(C)C(=O)C2(CCCC2)NC(=O)[C@@H]2CCCN2C(=O)[C@H](CCc2ccc(C(F)(F)F)c(Cl)c2)NC(=O)CN(C)C(=O)[C@@H]1Cc1ccc(C(F)(F)F)cc1 [PP1967] ([NEtLeu]IG[Sar][NPrPhe(4-CF3)][Sar][hPhe(3-Cl-4-CF3)]P[Ac5c][NMeGly(cPent)][NMeD]-Morpholide; lactam N-11),B (a compound having 3 or more and less than 10 is denoted as B),B (a compound having 3 or more and less than 10 is denoted as B)
0.11 nM,3.8 nM,CCCN(C)C(=O)[C@@H]1CC(=O)N(C)[C@@H](CC(F)F)C(=O)N[C@@H]([C@@H](C)CC)C(=O)N(C)CC(=O)N(C)[C@H]2C/C=C\CCN(C2=O)[C@@H](Cc2ccc(C(F)(F)F)cc2)C(=O)N(C)CC(=O)N[C@@H](CCc2cc(F)c(C(F)(F)F)c(F)c2)C(=O)N2C[C@H](OCC)C[C@H]2C(=O)NC2(CC(F)(F)C2)C(=O)N(C)[C@@H](C2CCCC2)C(=O)N1C [PP1733],A (a compound having 10 or more and less than 20 is denoted as A),A (a compound having 10 or more and less than 20 is denoted as A)
0.15 nM,13.2 nM,CC[C@H](C)[C@@H]1NC(=O)[C@H](CCOC)N(C)C(=O)C[C@@H](C(=O)N(C)CC)N(C)C(=O)[C@H](C2CCCC2)N(C)C(=O)C2(CC(C)(C)C2)NC(=O)[C@@H]2C[C@H](C)CN2C(=O)[C@H](CCc2cc(F)c(C(F)(F)F)c(F)c2)NC(=O)CN(C)C(=O)[C@H](Cc2ccc(C(F)(F)F)cc2)N2CC/C=C\C[C@@H](C2=O)N(C)C(=O)CN(C)C1=O [PP1972],A (a compound having 10 or more and less than 20 is denoted as A),A (a compound having 10 or more and less than 20 is denoted as A)
0.16 nM,18.3 nM,CC[C@H](C)[C@@H]1NC(=O)[C@H](CC2CCC2)N(C)C(=O)C[C@@H](C(=O)N(C)C)N(C)C(=O)[C@H](C2CCCC2)N(C)C(=O)C2(CC(C)(C)C2)NC(=O)[C@@H]2CCCN2C(=O)[C@H](CCc2cc(F)c(C(F)(F)F)c(F)c2)NC(=O)CN(C)C(=O)[C@H](Cc2ccc(C(F)(F)F)cc2)N2CC/C=C\C[C@@H](C2=O)N(C)C(=O)CN(C)C1=O [PP1728],A (a compound having 10 or more and less than 20 is denoted as A),A (a compound having 10 or more and less than 20 is denoted as A)
